The values below come from US10463590B1, “Antiplaque and dental health oral formulation” (priority 2018, dated 2019).

Type in all cases: cell-based
Assay [1] deals with Streptococcus mutans and Streptococcus sorbinus. The assay is described as follows: Bacteriostatic effect, broth macro-dilution assay (OD600) after 24 h. As to conditions: 10 μg/ml amoxicillin (FIG. 7A). On the procedure: (§1) Two oral Streptococcus species, i.e., Streptococcus mutans AU159 strain and Streptococcus sorbinus SL1 strain, obtained from the American Type Culture Collection (Manassas, Va.), were tested in their two morphological forms: cocci planktonic form and biofilm. The stocks of both species were cultured in commonly used conditions, i.e., BHI broth (Remel, San Diego, Calif.) without antibiotics at 37° C. with 5% CO2, in sterile two-position cap 5 ml polypropylene test tubes.
Growth inhibition of Streptococcus mutans and Streptococcus sorbinus was tested using standard macro-dilution method according to guidance of American Society for Microbiology to establish MIC (Minimal Inhibitory Concentration) value. Briefly, sterile 3 ml test two-position capped tubes containing 1 ml BHI broth, supplemented with the test mix was inoculated with 1×10^7 CFU/ml of the homogenous bacterial suspension. The tubes were then incubated at 37° C. with 5% CO2 and growth inhibition as a decrease in the optical density (OD600) was measured after 24 h. The entire experiment was repeated three times for each strain. Control cultures were treated with DMSO (i.e., 0.1-0.4% v/v) alone or amoxicillin (i.e. 10 μg/ml).

For assay [2] the test system is unchanged. The assay is described as follows: Bactericidal effect, broth macro-dilution combined with plating assay after 24 h. To be noted: 10 μg/ml amoxicillin (FIG. 7B). On the procedure: as §1
The plates were then incubated at 37° C. with 5% CO2 and bacterial re-growth was assessed after 24 h. The entire experiment was repeated three times for each strain. Control cultures were treated with DMSO (i.e., 0.1-0.4% v/v) alone or amoxicillin (i.e. 10 μg/ml).

The subject of assay [3] is biofilm of Streptococcus mutans and Streptococcus sorbinus. The assay is described as follows: Preventive effect on biofilm formation, crystal violet staining assay after 24 h. To be noted: 10 μg/ml amoxicillin (FIG. 7C). On the procedure: as §1
Preventive effect of the test mix against biofilm of Streptococcus mutans and Streptococcus sorbinus was evaluated by the commonly used crystal violet (CV) staining method, according to guidance of American Society for Microbiology to establish MBFC (Minimal Biofilm Formation Concentration) value. Briefly, 1×10^7 CFU/ml from homogeneous bacterial culture in BHI broth containing 1% sucrose, as a standard approach, was inoculated into saliva-coated 96-well plates and supplemented with the test mix. Control wells were treated with DMSO (i.e., 0.1-0.4% v/v) alone or amoxicillin (i.e., 10 μg/ml). All plates were then incubated at 37° C. with 5% CO2 for 24 h. […] The biofilms were carefully washed three times with 1×PBS (phosphate-buffered saline), and 200 μl of methanol was added to each well to extract a dye which was measured at 595 nm using a spectrophotometer (Molecular Device, Spectra Max 340). […]

For assay [4], the system named is pre-existing biofilm of Streptococcus mutans and Streptococcus sorbinus. The assay is described as follows: Pre-formed biofilm killing (biocidal) effect, alamar Blue assay after 24 h. To be noted: 500 μg/ml amoxicillin (FIG. 7E). On the procedure: as §1
Qualitative and quantitative efficacy of the test mix against biofilm of Streptococcus mutans and Streptococcus sorbinus was evaluated by the commonly used crystal violet (CV) staining method supported by alamarBlue staining assay (where resazurin, a non-fluorescent indicator dye, is converted to bright red-fluorescent resorufin via the reduction reactions of metabolically active cells and the amount of fluorescence produced is proportional to the number of living cells) for evaluating cellular health, according to guidance of American Society for Microbiology and manufacturer's protocol to establish MBEC (Minimal Biofilm Eradication Concentration) and MBBC (Minimal Biofilm Biocidal Concentration) values. Briefly, 1×10^7 CFU/ml from homogeneous bacterial culture in BHI broth containing 1% sucrose, as a standard approach, was inoculated into saliva-coated 96-well plates and supplemented with the test mix. […]

As for `CC1(C)S[C@@H]2[C@H](NC(=O)[C@H](N)c3ccc(O)cc3)C(=O)N2[C@H]1C(=O)O` [amoxicillin], in assay [1], the bacteriostatic effect is reported as 100%. In addition, the bactericidal effect in assay [2] is 100%. In assay [3], the “preventive effect on biofilm formation” value is listed as “approximately 99%”. Besides, the “biocidal effect on pre-existing biofilm” value in assay [4] was “approximately 20%”.
